What was measured:
[1] = test system: osteoclasts; assay: Bone absorption-inhibitory action in cell co-cultivation system (TRACP activity); type: cell-based, mice; conditions: 10 μM test substance; for Judged Efficacy (TRACP, t-test relative to the control): 2 weeks; for TRACP Act.: co-culture 2 weeks with 10 nM Calcitriol and 100 nM Dexamethasone, control 102.8 ± 12.6
Excerpt: The cell co-culture system used herein means a system in which osteoblasts and hematopoietic cells are subjected to co-culture in the presence of a factor for promoting the formation of osteoclasts and which thus easily permits the analysis of the differentiation process of the osteoclasts (Endocrinology, 1988, 123: 2600-2602). In such a system, osteoclasts are formed and therefore, the degree of osteoclast-formation can be evaluated by the determination of a tartaric acid-resistant acid phosphatase (TRACP) activity in the cell layer as the parameter indicative of the osteoclast.
The test for the confirmation of the bone absorption-inhibitory action of the isoprenoid ester was carried out according to the method disclosed in the literature (Endocrinology, 1988, 123: 2600). The method will be outlined below:
Stroma cells collected from the skull-caps of two-week-old mice according to the method disclosed in the literature (Endocrinology, 1988, 123: 2600) were dispersed in a 10% fetal bovine serum-containing culture base liquid (α-MEM; available from Gibco Company) to a cell density of 5×10^4 cells/mL.
Spleen cells collected from the spleen of 6-week-old ddy male mice according to the method disclosed in the literature (Proc. Natl. Acad. Sci. USA, 1983, 80: 5583) were dispersed in a 10% fetal bovine serum-containing culture base liquid (α-MEM; available from Gibco Company) to a cell density of 5×10^5 cells/mL.
The co-cultivation was carried out in a 5% CO2-containing atmosphere at a temperature of 37° C. using a 10% FBS (fetal bovine serum)-containing culture base liquid (α-MEM; available from Gibco Company). Osteoblast cells were inoculated on a 24-well petri dish at a cell density of 5×10^4 cells/mL/well, spleen cells were then inoculated thereon at a cell density of 5×10^5 cells/mL/well after one day and a solution of a test substance, which had been dissolved in DMSO in a concentration of 10^-2M, was then added to each well in such a manner that the concentration of the test substance was equal to 10 μM. These cells were cultivated in the presence of 10 nM Calcitriol and 100 nM Dexamethasone over 2 weeks while defining the day on which the spleen cells were inoculated as 0th day. In this respect, the culture medium was replaced with fresh one twice a week. After two weeks, the activity of the tartrate-resistant acid phosphatase (hereunder referred to as “TRACP”) in the cell layer was determined, which served as a parameter indicating the number of osteoclasts in the layer.
In the determination of the TRACP activity, there was used a kit of acid phosphatase KII-WAKO (available from WAKO Pure Chemical Co., Ltd.). The culture medium was removed from the Petri dish, 500 μL each of a substrate was added to each well, the resulting cell suspension was heated at 37° C. for 15 minutes, followed by the addition of 500 μL each of a color developing liquid and the determination of the absorbance at a wavelength of 570 nm. The TRACP activity corresponding to each absorbance thus measured was determined using a calibration curve prepared in advance.

[2] = Test for acute toxicity; type: in vivo, rats; conditions: oral
Description: The acute toxicity test was carried out according to the following method. Whister female rats (6-week-old, average body weight: 160 g) were previously kept for one week using a powdery blend feed having an AIN-93 composition, divided into three groups (each group containing 10 animals) in such a manner that the average body weight was uniform and the groups were specified as the orally administered group, the subcutaneously administered group and the intraperitoneally administered group, in the following tests. Geranyl-geranyl eicosapentaenoate prepared according to the procedures used in Example 5 was dissolved in cotton seed oil and administered to the foregoing animals through the corresponding administration routes in an amount of 2000 mg/kg (body weight). Subsequently, these animals were kept using a powdery blend feed having an AIN-93 composition to thus observe the prognostic conditions of the animals over 2 weeks after the administration and after 2 weeks, these animals were anatomized to thus inspect the animals for conditions of internal organs thereof.

[3] = test system: MC3T3-E1 cells; assay: Alkaline phosphatase (ALP) activity of osteoblasts in cell culture system; type: cell-based, mice; conditions: 2.5 μM; for ALP Act.: cultivation over one week, control 71.6 ± 4.6; for Judged Efficacy (ALP, t-test relative to the control): one week
Excerpt: (§1) In such a system, the osteoblasts are proliferated and the activity of osteoblasts is increased. Therefore, any influence of a substance on the osteoblast-formation can be evaluated by determining, for instance, the rate of cell proliferation and the alkaline phosphatase (ALP) activity as an activity parameter.
(§2) In this Example, there were examined the effects of the chain isoprenoid fatty acid esters on the differentiation and calcium-accumulation of MC3T3-E1 cells or the osteoblasts derived from the skull-caps of mice. A culture medium was added to a 6-well plate in an amount of 2 mL/well, a desired number of MC3T3-E1 cells was inoculated on the medium and the cells were cultivated in a 10% fatal bovine serum-containing base culture liquid (α-MEM, available from Gibco Company) at 37° C. in an atmosphere of 5% CO2. On the day subsequent to the initiation of the cultivation, the culture medium was replaced with the fresh one and simultaneously a solution containing each test sample (the chain isoprenoid fatty acid esters obtained in Preparation Examples 1 to 9) was admixed with and added to the culture medium in an amount of 10 μM for the determination of the cell growth rate and 2.5 μM for the determination of the alkali phosphatase (ALP) activity and the cultivation was continued. The cells for the cell growth rate determination were recovered after 3 days from the initiation of the cultivation and the number of viable cells was counted to determine the cell growth rate. Regarding the other cells, the medium was replaced with fresh one on 5th day of cultivation, the test sample-containing solution was again added and the alkali phosphatase (ALP) activity was determined after the cultivation over one week.
In these experiments, there was used a kit for Alkaline Phospha K-Test WAKO (available from WAKO Pure Chemical Co., Ltd.). A sample used was a suspension of cells obtained by cultivating the same in the presence of each test substance added. A substrate (150 μL) was added to 10 μL of each sample followed by heating at 37° C. for 15 minutes, the addition of 150 μL of a color-developing liquid and determination of the absorbance at 570 nm. The ALP activity corresponding to each absorbance thus measured was determined using a calibration curve prepared in advance.

[4] = test system: MC3T3-E1 cells; assay: Cell growth rate of osteoblasts in cell culture system; type: cell-based, mice; conditions: 10 μM; viable cells after 3 days; relative to control defined as 100
Excerpt: as §1, §2
The cell growth rate was calculated as a value relative to the cell growth rate observed for the control (free of any added test sample), which was defined to be 100.

| Molecule | Judged Efficacy (TRACP, t-test relative to the control) [1] | TRACP Act. [1] [KA-U/well] | Anatomical findings of the internal organs ([2]; 2000 mg/kg, subcutaneous, intraperitoneal, after 2 weeks) | Mortality ([2]; 2000 mg/kg, subcutaneous, intraperitoneal, after 2 weeks from the administration) | LD50 value ([2]; female rats, subcutaneous and intraperitoneal groups, single 2000 mg/kg in cotton seed oil, 2 weeks observation) | ALP Act. [3] [KA-U/well] | Judged Efficacy (ALP, t-test relative to the control) [3] | Cell Growth Rate [4] [%] |
| --- | --- | --- | --- | --- | --- | --- | --- | --- |
| Geranyl-Geranyl Eicosapentaenoate | ⊚ (The test substance shows a considerable inhibitory effect (p < 0.01)) | 9.7 ± 1.4 | normal | any animal was not killed | higher than 2000 mg/kg (body weight) | 123.5 ± 7.3 | ⊚ (The test substance shows a considerable inhibitory effect (p < 0.01)) | 107.8 |
| CCCCCCCC/C=C\CCCCCCCC(=O)OC/C=C(\C)CC/C=C(\C)CC/C=C(\C)CCC=C(C)C [Geranyl-geranyl oleate, Geranyl-Geranyl Oleate] | ⊚ (The test substance shows a considerable inhibitory effect (p < 0.01)) | 16.8 ± 3.4 | – | – | – | 82.8 ± 6.7 | ◯ (The test substance shows an inhibitory effect (p < 0.05)) | 108.3 |
| CCCCCCCCCCCCCCCCCC(=O)OC/C=C(\C)CC/C=C(\C)CC/C=C(\C)CCC=C(C)C [Geranyl-geranyl stearate, Geranyl-Geranyl Stearate] | ⊚ (The test substance shows a considerable inhibitory effect (p < 0.01)) | 25.3 ± 5.2 | – | – | – | 80.1 ± 5.2 | ◯ (The test substance shows an inhibitory effect (p < 0.05)) | 102.9 |

Source: patent US7579374B2, “Agent for improving bone metabolism” (The Nisshin OilliO Group, Ltd., priority 2001, dated 2009)
